# Data reported in patent publication US8568762B2, “Methods for modifying the surface of an implant to provide said surface with calcium” (Biotechnology Institute, I Mas D, S.L., priority 2010, dated 2013).
# What was measured:
# [1] = test system: blood plasma; experiment: Test 4a: coagulation as a function of the volume concentration of calcium (absorbance 450 nm); type: biochemical, human; conditions: without surfaces; calcium in plasma between 2.5 and 45.6 mM
# Procedure: Blood plasma was prepared by extracting blood from three healthy patients. A technique similar to the one described in patent EP1066838B1 was applied to obtain a Plasma Rich in Growth Factors (PRGF): the blood was centrifuged for eight minutes at 460 G; the column of plasma was then separated from the red globules and white globules by manual pipetting (unlike the protocol described in EP1066838B1, in this case, due to the criteria of volume for carrying out the experiments, the entire plasma column was selected, not merely the part richer in platelets). Both the red globules and the white globules were discarded.
# For the purpose of determining the ranges of concentration of calcium ions in plasma at which coagulation is initiated, 10 μl of CaCl2.EtOH were placed in concentrations of between 28 and 2000 mM in the bottom of a multi-well plate comprising 96 wells. […] Absorbance was measured immediately in the manner described hereafter.
# Immediately after the tubes were filled, absorbance (optical density) was measured with a spectrophotometer at a wavelength of 450 nm. […]
# This gradual cross-linking gradually blocks the passage of the reader beam, the absorbance therefore increasing. […] It is at this point that the absorbance (optical density) values are collated so that comparisons can be made between the various samples.
# [2] = ambient temperature; cited from earlier work
# [3] = test system: blood plasma; experiment: Test 4b: coagulation in the presence of surfaces with or without calcium (titanium tubes, absorbance 450 nm); type: biochemical, human; conditions: surfaces with no calcium; 50 mM NaOH or 0.9 wt. % NaCl treatment, not dried
# Procedure: Blood plasma was prepared by extracting blood from three healthy patients. A technique similar to the one described in patent EP1066838B1 was applied to obtain a Plasma Rich in Growth Factors (PRGF): the blood was centrifuged for eight minutes at 460 G; the column of plasma was then separated from the red globules and white globules by manual pipetting (unlike the protocol described in EP1066838B1, in this case, due to the criteria of volume for carrying out the experiments, the entire plasma column was selected, not merely the part richer in platelets). Both the red globules and the white globules were discarded. First of all, the surfaces were prepared. For the study of the coagulation, in which the excess surface calcium was to be measured, hollow tubes were used to enable the reader beam to move longitudinally. […] They were ultrasound-washed with Triton X-100, acetone and ethanol, for 20 minutes. Eight tubes were used per concentration. The solutions were prepared. […] Immediately after the tubes were filled, absorbance (optical density) was measured with a spectrophotometer at a wavelength of 450 nm. […] This gradual cross-linking gradually blocks the passage of the reader beam, the absorbance therefore increasing. […] It is at this point that the absorbance (optical density) values are collated so that comparisons can be made between the various samples.
SMILES,"final degree of coagulation in volume, normalized with respect to the positive control [1]",solubility in water [2],degree of coagulation inside titanium tubes normalized to positive control [3]
"[Ca+2].[Cl-].[Cl-] [CaCl2, calcium chloride]",sometimes even greater than that of the positive control,> 60 g/100 mL,
"[Cl-].[Na+] [NaCl, sodium chloride]",,,lack of coagulation is evident
"[Na+].[OH-] [NaOH, sodium hydroxide]",,,lack of coagulation is evident
